One may read the EC50 as the concentration that produces a half-maximal response. Low values mean a more potent agent, high ones a less potent agent.

This assay addresses human GPR119 (Homo sapiens (Human), UniProt Q8TDV5). As to the kind of experiment: AlphaScreen cAMP assay in Min-6/hGPR119 cells (GPR119 activation, intracellular cAMP). The following applies: MIN6 cells stably transfected with human GPR119; 45 minutes' incubation at RT; AlphaScreen cAMP Assay Kit. In kind it is cell-based. In short, it runs like this: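 MIN6 cells stably expressing human GPR119 plated 10000 cells/well and held 24 h at 37° C. Compounds applied in stimulating buffer, pH 7.4, with 0.5 mM IBMX, 0.1% BSA, 1% DMSO final, for 45 min at RT. Intracellular cAMP read by AlphaScreen.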
In general terms: Bead proximity is the source of the signal in Alpha formats.

Chain of human GPR119 (Q8TDV5 whole entry): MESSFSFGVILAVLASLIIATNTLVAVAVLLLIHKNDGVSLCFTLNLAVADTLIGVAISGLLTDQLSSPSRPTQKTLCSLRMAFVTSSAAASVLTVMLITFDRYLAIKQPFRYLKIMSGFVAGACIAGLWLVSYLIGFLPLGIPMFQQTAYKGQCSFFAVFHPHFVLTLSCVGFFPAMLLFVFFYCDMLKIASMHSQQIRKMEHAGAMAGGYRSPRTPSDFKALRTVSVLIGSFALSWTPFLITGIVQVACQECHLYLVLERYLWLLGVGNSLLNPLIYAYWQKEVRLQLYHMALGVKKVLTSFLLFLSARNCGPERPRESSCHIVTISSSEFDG

In turn, `CC1CC(=O)NN=C1c1ccc2nc(-c3cccc(Cl)c3)oc2c1` (centres unmarked) [Example 88, 6-[2-(3-chloro-phenyl)-benzoxazol-6-yl]-5-methyl-4,5-dihydro-2H-pyridazin-3-one] returned a concentration for a half-maximal effect (EC50) of 260 nM.

As to `CC1CC(=O)NN=C1c1ccc2nc(-c3ccccc3Cl)oc2c1` (centres unmarked) [Example 89, 6-[2-(2-chloro-phenyl)-benzoxazol-6-yl]-5-methyl-4,5-dihydro-2H-pyridazin-3-one], it took 415 nM to reach a half-maximal effect (EC50).

`COC(=O)c1ccc(-c2nc3ccc(C4=NNC(=O)CC4C)cc3o2)cc1` (centres unmarked) [Example 90, methyl 4-[6-(4-methyl-6-oxo-1,4,5,6-tetrahydro-pyridazin-3-yl)-benzoxazol-2-yl]-benzoate] gave an EC50 of 763 nM.

Regarding `CCC1CC(=O)NN=C1c1ccc2nc(-c3ccc(OC)cc3F)oc2c1` (centres unmarked) [Example 91, 5-ethyl-6-[2-(2-fluoro-4-methoxy-phenyl)-benzoxazol-6-yl]-4,5-dihydro-2H-pyridazin-3-one], a half-maximal effect (EC50) was put at 142 nM.

Turning to `CCC1CC(=O)NN=C1c1ccc2nc(-c3ccc(OC)c(OC)c3)oc2c1` (centres unmarked) [Example 92, 6-[2-(3,4-dimethoxy-phenyl)-benzoxazol-6-yl]-5-ethyl-4,5-dihydro-2H-pyridazin-3-one], the EC50 amounted to 460 nM.

The compound `CCC1CC(=O)NN=C1c1ccc2nc(-c3ccc(F)c(OC)c3)oc2c1` (centres unmarked) [Example 93, 5-ethyl-6-[2-(4-fluoro-3-methoxy-phenyl)-benzoxazol-6-yl]-4,5-dihydro-2H-pyridazin-3-one] yielded an EC50 of 397 nM.

For `CCC1CC(=O)NN=C1c1ccc2nc(-c3ccc(Oc4ccccc4)cc3)oc2c1` (centres unmarked) [Example 95, 5-ethyl-6-[2-(4-phenoxy-phenyl)-benzoxazol-6-yl]-4,5-dihydro-2H-pyridazin-3-one], the EC50 amounted to 67 nM.

On to `CCC1CC(=O)NN=C1c1ccc2nc(-c3ccc(N(C)C)cc3)oc2c1` (centres unmarked) [Example 96, 6-[2-(4-dimethylamino-phenyl)-benzoxazol-6-yl]-5-ethyl-4,5-dihydro-2H-pyridazin-3-one], for which it took 42 nM to reach a half-maximal effect (EC50).

Take `CCC1CC(=O)NN=C1c1ccc2nc(-c3cc(C)cs3)oc2c1` (centres unmarked) [Example 97, 5-ethyl-6-[2-(4-methyl-thiophen-2-yl)-benzoxazol-6-yl]-4,5-dihydro-2H-pyridazin-3-one]: a half-maximal response (EC50) required 225 nM.

Regarding `CCC1CC(=O)NN=C1c1ccc2nc(-c3ccc(OC)c(F)c3)oc2c1` (centres unmarked) [Example 98, 5-ethyl-6-[2-(3-fluoro-4-methoxy-phenyl)-benzoxazol-6-yl]-4,5-dihydro-2H-pyridazin-3-one], the half-maximal effective concentration (EC50) was found to be 294 nM.

Take `CCC1CC(=O)NN=C1c1ccc2nc(-c3ccc(OC(C)C)cc3)oc2c1` (centres unmarked) [Example 99, 5-ethyl-6-[2-(4-isopropoxy-phenyl)-benzoxazol-6-yl]-4,5-dihydro-2H-pyridazin-3-one]: the EC50 amounted to 59 nM.

The compound `CCC1CC(=O)NN=C1c1ccc2nc(-c3cccc(OC(C)C)c3)oc2c1` (centres unmarked) [Example 100, 5-ethyl-6-[2-(3-isopropoxy-phenyl)-benzoxazol-6-yl]-4,5-dihydro-2H-pyridazin-3-one] showed an EC50 of 442 nM.

`CCC1CC(=O)NN=C1c1ccc2nc(-c3ccc(C)s3)oc2c1` (centres unmarked) [Example 101, 5-ethyl-6-[2-(5-methyl-thiophen-2-yl)-benzoxazol-6-yl]-4,5-dihydro-2H-pyridazin-3-one] had an EC50 of 194 nM.

Turning to `CCC1CC(=O)NN=C1c1ccc2nc(-c3cccc(OC)c3)oc2c1` (centres unmarked) [Example 102, 5-ethyl-6-[2-(3-methoxy-phenyl)-benzoxazol-6-yl]-4,5-dihydro-2H-pyridazin-3-one], the EC50 came out at 316 nM.

`CCC1CC(=O)NN=C1c1ccc2nc(-c3ccc(OC(F)(F)F)cc3)oc2c1` (centres unmarked) [Example 103, 5-ethyl-6-[2-(4-trifluoromethoxy-phenyl)-benzoxazol-6-yl]-4,5-dihydro-2H-pyridazin-3-one]: it took 1210 nM to reach a half-maximal effect (EC50).

Consider `CCC1CC(=O)NN=C1c1ccc2nc(-c3ccc(OC)cc3)oc2c1` (centres unmarked) [Example 104, 5-ethyl-6-[2-(4-methoxy-phenyl)-benzoxazol-6-yl]-4,5-dihydro-2H-pyridazin-3-one], for which the midpoint of the response, the EC50, lay at 120 nM.

`CCC1CC(=O)NN=C1c1ccc2nc(-c3ccc(OC4CCOCC4)cc3)oc2c1` (centres unmarked) [Example 105, 5-ethyl-6-{2-[4-(tetrahydro-pyran-4-yloxy)-phenyl]-benzoxazol-6-yl}-4,5-dihydro-2H-pyridazin-3-one] yielded an EC50 of 80 nM.

`O=C1CCC(c2ccc3nc(-c4cccs4)oc3c2)=NN1` [Example 111, 6-(2-thiophen-2-yl-benzoxazol-6-yl)-4,5-dihydro-2H-pyridazin-3-one]: the EC50 amounted to 967 nM.

As to `O=C1CCC(c2ccc3nc(-c4ccco4)oc3c2)=NN1` [Example 112, 6-(2-furan-2-yl-benzoxazol-6-yl)-4,5-dihydro-2H-pyridazin-3-one], the EC50 was determined as 1320 nM.

Compound `O=C1CCC(c2ccc3nc(N4CCCCC4)oc3c2)=NN1` [Example 118, 6-(2-piperidin-1-yl-benzoxazol-6-yl)-4,5-dihydro-2H-pyridazin-3-one] registered an EC50 of 3740 nM.

Compound `O=C1CCC(c2ccc3nc(N4CCSCC4)oc3c2)=NN1` [Example 119, 6-(2-thiomorpholin-1-yl-benzoxazol-6-yl)-4,5-dihydro-2H-pyridazin-3-one] showed an EC50 of 3460 nM.

In the case of `CC1CC(=O)NN=C1c1ccc2nc(-c3ccc(C#N)cc3)oc2c1` (centres unmarked) [Example 122, 4-[6-(4-methyl-6-oxo-1,4,5,6-tetrahydro-pyridazin-3-yl)-benzoxazol-2-yl]-benzonitrile], the EC50 was 4000 nM.

As to `CC1CC(=O)NN=C1c1ccc2nc(-c3cccc(C#N)c3)oc2c1` (centres unmarked) [Example 123, 3-[6-(4-methyl-6-oxo-1,4,5,6-tetrahydropyridazin-3-yl)-1,3-benzoxazol-2-yl]benzonitrile], the midpoint of the response, the EC50, lay at 902 nM.

With `CC1CC(=O)NN=C1c1ccc2nc(-c3ccc(CN)cc3)oc2c1` (centres unmarked) [Example 124, 6-[2-(4-aminomethyl-phenyl)-benzoxazol-6-yl]-5-methyl-4,5-dihydro-2H-pyridazin-3-one], the EC50 worked out at 8720 nM.

The compound `CC1CC(=O)NN=C1c1ccc2nc(-c3cccc(CN)c3)oc2c1` (centres unmarked) [Example 125, 6-{2-[3-(aminomethyl)phenyl]1,3-benzoxazol-6-yl}-5-methyl-2,3,4,5-tetrahydropyridazin-3-one] returned an EC50 of 1600 nM.

With `CC[C@H]1C(=O)NN=C(c2ccc3nc(-c4ccccc4)oc3c2)[C@H]1C` [Example 127, (4R,5S)-4-ethyl-5-methyl-6-(2-phenyl-1,3-benzoxazol-6-yl)-2,3,4,5-tetrahydropyridazin-3-one], the EC50 was found to be 2590 nM.

The compound `O=C1NN=C(C2CCc3nc(-c4ccccc4)oc3C2)C2CC12` (centres unmarked) [Example 130, 5-(2-phenyl-4,5,6,7-tetrahydro-benzoxazol-6-yl)-3,4-diaza-bicyclo[4.1.0]hept-4-en-2-one] registered an EC50 of 814 nM.

Compound `O=C1NN=C([C@H]2CCc3nc(-c4ccccc4)oc3C2)[C@H]2C[C@@H]12` [Example 131, (1R,6S)-5-((S)-2-phenyl-4,5,6,7-tetrahydro-benzoxazol-6-yl)-3,4-diaza-bicyclo[4.1.0]hept-4-en-2-one] gave an EC50 of 7700 nM.

On to `O=C1NN=C([C@@H]2CCc3nc(-c4ccccc4)oc3C2)[C@H]2C[C@@H]12` [Example 132, (1R,6S)-5-((R)-2-phenyl-4,5,6,7-tetrahydro-benzoxazol-6-yl)-3,4-diaza-bicyclo[4.1.0]hept-4-en-2-one], for which the EC50 was 4160 nM.
